Holding throughout (format): in vivo
For data set [1], the system named is AMBROSIA ARTEMISIIFOLIA, L. Briefly: Postemergence herbicidal evaluation, AMBEL (Ragweed, Common). Particulars: rated four to five weeks after treatment, averaged. The method, then: (§1) In the tests, seedling plants are grown in jiffy flats for about two weeks. The test compounds are dispersed in 50/50 acetone/water mixtures containing 0.5% TWEEN®20, a polyoxyethylene sorbitan monolaurate surfactant of Atlas Chemical Industries, […] to the plants through a spray nozzle operating at 40 psi for a predetermined time. After spraying, the plants are placed on greenhouse benches and are cared for in the usual manner, commensurate with conventional greenhouse practices. From four to five weeks after treatment, the seedling plants are examined and rated according to the rating system set forth below. Where more than one test is involved for a given compound, the data are averaged.
(§2) Plant species employed in these evaluations are reported by header abbreviation, common name and scientific name.
(§3) Results of herbicide evaluation are expressed on a rating scale (0-9). The scale is based upon a visual observation of plant stand, vigor, malformation, size, chlorosis and overall plant appearance as compared with a control.

The subject of data set [2] is ORYZA SATIVA, L. TEBONNET
Description: Rice tolerance to post-transplant applications under flooded paddy conditions, ORYSAT (Rice, Tebonnet). As to conditions: post-transplant rice, 3-4 weeks after treatment. The method, then: as §3
The tolerance of transplanted rice to post-transplanted herbicide applications is determined as follows: two ten-day-old rice seedlings (CV. Tebonnet) are transplanted into a silt loam soil in 32 oz. plastic containers with a diameter of 10.5 cm and no drainage holes. After transplanting the containers are flooded and the water level is maintained at 1.5 to 3 cm above the soil surface. […] The treated containers are placed on greenhouse benches, watered such that the water level is maintained as stated above, and cared for according to normal greenhouse procedures. Three to four weeks after treatment the test is terminated and each container is examined and herbicidal effect rated according to the rating system provided in Example 40. The compounds evaluated are reported by compound number given in Example 40.
(§4) Plant species employed in this example are reported by header abbreviation, common name and scientific name.

The test system of a further data set is […], PRESL. Description: Preemergence weed control under flooded paddy conditions, MOOVA (Monochoria). As to conditions: preemergence, 3-4 weeks after treatment. How it is done:
as §3
(§5) Preemergence herbicidal activity under flooded paddy conditions is determined as follows: plant seeds or propagating organs are planted in the top 0.5 cm of silt loam soil in 32 oz. plastic containers with a diameter of 10.5 cm and no drainage holes. Water is added to these containers and maintained at 1.5 to 3 cm above the soil surface for the duration of the experiment. The test compounds are applied as aqueous/acetone mixtures 50/50 v/v pipetted directly into the flood water to give the equivalent of about 0.5, 0.25, 0.125 and 0.063 kg/ha of active ingredient. The treated containers are placed on greenhouse benches and cared for according to normal greenhouse procedures.- Three to four weeks after treatment the test is terminated and each container is examined and herbicidal effect rated according to the rating system provided in Example 40. The compounds evaluated are reported by compound number given in Example 40.
as §4

Data set [3] relates to ABUTILON THEOPHRASTI, MEDIC. Description: Postemergence herbicidal evaluation, ABUTH (Velvetleaf). Particulars: rated four to five weeks after treatment, averaged. How it is done: as §1, §2, §3
Another data set deals with CASSIA OBTUSIFOLIA, L. Briefly: Postemergence herbicidal evaluation, CASOB (Sicklepod). Particulars: rated four to five weeks after treatment, averaged. How it is done:
(§6) In the tests, seedling plants are grown in jiffy flats for about two weeks. The test compounds are dispersed in 50/50 acetone/water mixtures containing 0.5% TWEEN®20, a polyoxyethylene sorbitan monolaurate surfactant of Atlas Chemical Industries, in sufficient quantities to provide the equivalent of about 0.125 kg to 0.500 kg per hectare of active compound when applied to the plants through a spray nozzle operating at 40 psi for a predetermined time. After spraying, the plants are placed on greenhouse benches and are cared for in the usual manner, commensurate with conventional greenhouse practices. From four to five weeks after treatment, the seedling plants are examined and rated according to the rating system set forth below. Where more than one test is involved for a given compound, the data are averaged.
as §2, §3

Data set [4] has as its system CHENOPODIUM ALBUM, L. Briefly: Preemergence herbicidal evaluation, CHEAL (Lambsquarters, Common). As to conditions: rated four to five weeks after treatment.
Text: as §3
The preemergence herbicidal activity of the test compounds of the present invention is exemplified by the following tests in which the seeds of a variety of monocotyledonous and dicotyledonous plants are separately mixed with potting soil and planted on top of approximately one inch of soil in separate pint cups. […] The treated cups are then placed on greenhouse benches, watered and cared for in accordance with conventional greenhouse procedures. From four to five weeks after treatment, the tests are terminated and each cup is examined and rated according to the rating system provided in Example 40.
The compounds evaluated are reported by compound number given in Example 40.

For another data set, the system named is IPOMOEA SPP. Briefly: Postemergence herbicidal evaluation, IPOSS (Morningglory spp.). As to conditions: rated four to five weeks after treatment, averaged. The method, then: as §1, §2, §3
For data set [5], the system named is ECHINOCHLOA ORYZOIDES (ARD.)FRITSCH. Description: Preemergence weed control under flooded paddy conditions, ECHORC (Watergrass (Calif.)). Particulars: preemergence, 3-4 weeks after treatment. The method, then: as §3
as §5, with “The test compounds are applied as aqueous/acetone mixtures 50/50 v/v pipetted directly into the flood water to give the equivalent of about 0.5, 0.25, 0.125 and 0.063 kg/ha of active ingredient.” left out
as §4

Data set [6] relates to CHENOPODIUM ALBUM, L. Briefly: Postemergence herbicidal evaluation, CHEAL (Lambsquarters, Common). Particulars: rated four to five weeks after treatment, averaged. The method, then: as §1, §2, §3
For a further data set, the system named is GALIUM APARINE. Briefly: Postemergence herbicidal evaluation, GALAP (Galium). As to conditions: rated four to five weeks after treatment, averaged. How it is done: as §6, §2, §3
The test system of data set [7] is CYPERUS SEROTINUS, ROTTB. Briefly: Preemergence weed control under flooded paddy conditions, CYPSE (Flatsedge). As to conditions: preemergence, 3-4 weeks after treatment. How it is done:
as §3
as §5, with “The test compounds are applied as aqueous/acetone mixtures 50/50 v/v pipetted directly into the flood water to give the equivalent of about 0.5, 0.25, 0.125 and 0.063 kg/ha of active ingredient.” left out
as §4

The subject of the next data set is SAGITTARIA PYGMAEA, L. Description: Preemergence weed control under flooded paddy conditions, SAGPY (Arrowhead (Pygmaea)). Particulars: preemergence, 3-4 weeks after treatment. The method, then: as §3
as §5, with “The test compounds are applied as aqueous/acetone mixtures 50/50 v/v pipetted directly into the flood water to give the equivalent of about 0.5, 0.25, 0.125 and 0.063 kg/ha of active ingredient.” left out
as §4

Turning to `Cn1c(=O)n(CC(=O)O)c(=O)n(-c2cc(Oc3c(F)cc(C(F)(F)F)cc3Cl)ccc2[N+](=O)[O-])c1=O` [Compound 15, 3-{5-[(2-Chloro-α,α,α,6-tetrafluoro-p-tolyl)oxy]-2-nitrophenyl}tetrahydro-5-methyl-2,4,6-trioxo-s-triazine-1(2H)-acetic acid], the “AMBEL, herbicide rating (0-9)” value in data set [1] (Rate 0.125 kg/ha), in data set [1] (Rate 0.250 kg/ha) and in data set [1] (Rate 0.500 kg/ha) was 9.0 throughout. In addition, the “Herbicidal effect rating, ORYSAT” value turned out to be 4.5 in [2] (0.063 kg/ha), 4.5 in [2] (0.125 kg/ha), 7.0 in [2] (0.250 kg/ha) and 7.0 in data set [2] (0.500 kg/ha). Moreover, the “Herbicidal effect rating, MOOVA” value in data set […], PRESL. (0.063 kg/ha) was determined as 9.0; in data set […], PRESL. (0.125 kg/ha), 9.0; in data set […], PRESL. (0.250 kg/ha), 9.0; in data set […], PRESL. (0.500 kg/ha) it was 9.0. The “ABUTH, herbicide rating (0-9)” value in data set [3] (Rate 0.125 kg/ha), in data set [3] (Rate 0.250 kg/ha) and in [3] (Rate 0.500 kg/ha) was 9.0 each time. For the same compound, the “CASOB, herbicide rating (0-9)” value is 9.0 with CASSIA OBTUSIFOLIA, L. (Rate 0.125 kg/ha); 9.0 in the data set on CASSIA OBTUSIFOLIA, L. (Rate 0.250 kg/ha); 9.0 in the data set on CASSIA OBTUSIFOLIA, L. (Rate 0.500 kg/ha). Also, the CHEAL herbicidal rating in the data set with CHENOPODIUM ALBUM, L. [4] (Rate 0.125 kg/ha) stood at 9.0; with CHENOPODIUM ALBUM, L. [4] (Rate 0.250 kg/ha), 9.0; with CHENOPODIUM ALBUM, L. [4] (Rate 0.500 kg/ha), 9.0.

Take `COC(=O)Cn1c(=O)n(C)c(=O)n(-c2cc(Oc3ccc(Cl)cc3Cl)ccc2[N+](=O)[O-])c1=O` [Compound 18, Methyl 3-[5-(2,4-dichlorophenoxy)-2-nitrophenyl]tetrahydro-5-methyl-2,4,6-trioxo-s-trizine-1(2H)-acetate]: the “IPOSS, herbicide rating (0-9)” value in the data set on IPOMOEA SPP. (Rate 0.125 kg/ha), in the data set with IPOMOEA SPP. (Rate 0.250 kg/ha) and with IPOMOEA SPP. (Rate 0.500 kg/ha) was 9.0 throughout. Besides, the “Herbicidal effect rating, ECHORC” value in [5] (0.063 kg/ha), in [5] (0.125 kg/ha), in data set [5] (0.250 kg/ha) and in [5] (0.500 kg/ha) was 9.0 in each case. The “CHEAL, herbicide rating (0-9)” value in the data set with CHENOPODIUM ALBUM, L. [6] (Rate 0.125 kg/ha) is recorded as 9.0; in the data set with CHENOPODIUM ALBUM, L. [6] (Rate 0.250 kg/ha), 9.0; in the data set on CHENOPODIUM ALBUM, L. [6] (Rate 0.500 kg/ha) it was 9.0. The “Herbicidal effect rating, ORYSAT” value was 2.0 in [2] (0.063 kg/ha), 3.0 in data set [2] (0.125 kg/ha), 3.0 in data set [2] (0.250 kg/ha) and 4.0 in [2] (0.500 kg/ha). For the same compound, the “Herbicidal effect rating, MOOVA” value is 9.0 in […], PRESL. (0.063 kg/ha); 9.0 in data set […], PRESL. (0.125 kg/ha); 9.0 in […], PRESL. (0.250 kg/ha); 9.0 in […], PRESL. (0.500 kg/ha). Moreover, the “ABUTH, herbicide rating (0-9)” value in [3] (Rate 0.125 kg/ha), in data set [3] (Rate 0.250 kg/ha) and in [3] (Rate 0.500 kg/ha) was 9.0 each time. The “GALAP, herbicide rating (0-9)” value in the data set with GALIUM APARINE (Rate 0.125 kg/ha), with GALIUM APARINE (Rate 0.250 kg/ha) and in the data set on GALIUM APARINE (Rate 0.500 kg/ha) was 9.0 throughout. Moreover, the “CASOB, herbicide rating (0-9)” value in the data set with CASSIA OBTUSIFOLIA, L. (Rate 0.125 kg/ha) turned out to be 9.0; with CASSIA OBTUSIFOLIA, L. (Rate 0.250 kg/ha), 9.0; with CASSIA OBTUSIFOLIA, L. (Rate 0.500 kg/ha), 9.0.

In the case of `COC(=O)Cn1c(=O)n(CC(=O)OC)c(=O)n(-c2cc(Oc3ccc(Cl)cc3Cl)ccc2[N+](=O)[O-])c1=O` [Compound 19, Dimethyl 5-[5-(2,4-dichlorophenoxy)-2-nitro-phenyl]dihydro-2,4,6-trioxo-s-trizine-1,3-(2H,4H)-diacetate], the “Herbicidal effect rating, CYPSE” value in data set [7] (0.063 kg/ha), in data set [7] (0.125 kg/ha), in data set [7] (0.250 kg/ha) and in [7] (0.500 kg/ha) was 0.0 throughout. Besides, the “Herbicidal effect rating, ORYSAT” value in [2] (0.063 kg/ha), in data set [2] (0.125 kg/ha), in [2] (0.250 kg/ha) and in data set [2] (0.500 kg/ha) was 1.0 throughout. The “Herbicidal effect rating, MOOVA” value in data set […], PRESL. (0.063 kg/ha) came out at 9.0; in […], PRESL. (0.125 kg/ha) it was 9.0; in […], PRESL. (0.250 kg/ha) it was 9.0; in data set […], PRESL. (0.500 kg/ha), 9.0. For the same compound, the “ABUTH, herbicide rating (0-9)” value in data set [3] (Rate 0.125 kg/ha), in data set [3] (Rate 0.250 kg/ha) and in data set [3] (Rate 0.500 kg/ha) was 9.0 each time. In addition, the “GALAP, herbicide rating (0-9)” value in the data set with GALIUM APARINE (Rate 0.125 kg/ha), in the data set on GALIUM APARINE (Rate 0.250 kg/ha) and in the data set with GALIUM APARINE (Rate 0.500 kg/ha) was 9.0 each time. Also, the “CASOB, herbicide rating (0-9)” value with CASSIA OBTUSIFOLIA, L. (Rate 0.125 kg/ha) was 9.0; with CASSIA OBTUSIFOLIA, L. (Rate 0.250 kg/ha), 9.0; with CASSIA OBTUSIFOLIA, L. (Rate 0.500 kg/ha), 9.0. In addition, the “Herbicidal effect rating, SAGPY” value in the data set on SAGITTARIA PYGMAEA, L. (0.063 kg/ha) is reported as 0.0; in the data set with SAGITTARIA PYGMAEA, L. (0.125 kg/ha) it was 0.0; in the data set on SAGITTARIA PYGMAEA, L. (0.250 kg/ha) it was 0.0; with SAGITTARIA PYGMAEA, L. (0.500 kg/ha) it was 0.0.

Values taken from patent EP0745595A1, “3-(3-Aryloxyphenyl)-1-(substituted methyl)-s-triazine-2,4,6-oxo or thiotrione herbicidal agents” (American Cyanamid Company, priority 1995, dated 1996).
